Reference: patent US5780054A, “Methods for increasing the circulation half-life of protein-based therapeutics” (University of British Columbia, priority 1996, dated 1998)

Legend:
RES = conditions: in vivo; cited from earlier work
[1] = mouse, in vivo; cited from earlier work
anti-ovalbumin IgG = test: ELISA of plasma anti-ovalbumin IgG after 3 weekly i.v. injections (FIG. 3); type: in vivo, mouse (C3H/HeJ)
Experimental: Groups of four C3H/HeJ mice per experimental point were given the specified treatment as a single i.v. dose via a lateral tail vein. The injection, given in a volume of 200 μL, contained 50 μg of ovalbumin. In animals receiving control (protein free) liposomes, the dose was chosen based on the lipid dose given for the ovalbumin-coated liposome group. This lipid dose was approximately 45 mg/kg. In the groups receiving doxorubicin, the drug dose was approximately 8 mg/kg.
Microtitre plates (Flow Laboratories) were coated with 50 μL of 40 μg/mL ovalbumin and incubated at 4° C. overnight. The plates were washed twice (phosphate buffered saline containing 0.1% (vol/vol) TWEEN® 20) and then blocked with 2% bovine serum albumin (BSA) for 1 hour at 37° C. The plates were rinsed prior to addition of mouse plasma in a final volume of 100 μL (the extent to which the plasma was diluted depended on treatment group). […] Plates were incubated at room temperature for 30 min, washed, and the amount of plate associated β-galactosidase was determined. […] The amount of chlorophenol red produced was determined by measuring absorbance at 570 nm on a […] ® plate reader. Antibody levels were estimated on the basis of standard curves consisting of known quantities of a rabbit polyclonal anti-ovalbumin IgG (Cortex Biochemicals, Calif., USA). […]

Substance	circulation lifetimes for the liposomal carrier (RES)	liposome accumulation in the liver (RES)	spleen and bone marrow cellularity (RES)	maximum tolerated dose [1]	anti-ovalbumin IgG level (anti-ovalbumin IgG) [μg/mL plasma]
liposomal doxorubicin	significant increases	significant decreases	extended suppression	greater than 60 mg doxorubicin/kg	
free ovalbumin: IMJECT® (ovalbumin) obtained from Pierce					2.1
